In patent publication US12509438B2, “Pyrazole derivative” (Aptabio Therapeutics Inc., priority 2020, dated 2025):

How the values were obtained:
[1] = system: IL-1β; test: Expression of IL-1β induced by LPS in NHLF cells (RT-PCR); assay type: cell-based, human; conditions: 30 min pretreatment, LPS 6 hours, FIG. 5
Description: (§1) After inoculating a 2×10^5 number of cells in a 6 well plate and culturing for 24 hours and then further culturing in a culture solution without serum for 16 hours, the Synthetic example 3 compound was pretreated according to each condition for 30 minutes and inflammation reaction was induced by LPS for 6 hours. The expression of IL-1β was confirmed by using RT-PCR. The total RNA was separated from the cells by using RNeasy mini kit (Qiagen) and from the separated RNA 2 ug, cDNA was synthesized by using PrimeScript™ II 1st strand cDNA synthesis kit (TaKaRa) and then PCR was performed by AccuPower® PCR PreMix (Bioneer) to amplify genes. The sequence for target primers is as follows. IL-1β (forward: 5′-[…]-3′, reverse: 5′-[…]-3′); GAPDH (forward: 5′-[…]-3′, reverse: 5′-[…]-3′); β-actin (forward: 5′-[…]-3′, reverse: 5′-[…]-3′). The PCR product was confirmed by electrophoresis in 1.5% agarose gel.

[2] = system: collagen type I gene; test: Collagen type I gene expression induced by TGF-β1 in KEL-FIB keloid fibroblasts (qRT-PCR); assay type: cell-based; conditions: KEL-FIB cells; 5 μM or 10 μM compound; 2 ng/ml TGF-β1; 24 or 48 hours
Description: (§2) In order to confirm the effect on the process of producing extracellular matrix from keloid fibroblasts of the synthetic example compound, the expression change of an extracellular matrix formation promoting factor, CTGF and a representative extracellular matrix, collagen type I according to treatment of the Synthetic example 3 compound for KEL-FIB (keloid fibroblast) cells was analyzed at a gene level.
(§3) The KEL-FIB cell line was adapted in a DMEM comprising 2% FBS for 24 hours and then the Synthetic example 3 compound at a concentration of ? 5 μM or 10 μM was pretreated for 1 hour. For inducing expression of CTGF and collagen type I genes, 2 ng/ml TGF-β1 was treated and mRNA was extracted from the cells after 24 or 48 hours. The presence of mRNA and expression level of CTGF and collagen type 1 genes were confirmed by qRT-PCR (Quantitative real-time PCR).

[3] = system: LX-2 cells; test: ROS production in LX-2 cells (L-012 or DCF-DA); assay type: cell-based, human; conditions: FIG. 1
From the text: (§4) In order to confirm an effect of the synthetic example compounds on ROS production from fibroblasts and specific substrate cells, ROS production was induced by stimulation of PMA (phorbol 12-myristate 13-acetate), TGF-β1, palmitate or high concentration-glucose, or the like for HL-60 cells (Korean Cell Line Bank), NHLF(normal human lung fibroblast, Lonza), LX-2 (human hepatic stellate cells, Sigma), ARPE19 (human retinal pigment epithelial cell, ATCC), KEL-FIB (Keloid fibroblast, ATCC) cells differentiated into neutrophil cells by treatment of DMSO, and the inhibitory effect of ROS production of the synthetic example compounds was observed under this condition.
(§5) NHLF (normal human lung fibroblast, Lonza), LX-2 (human hepatic stellate cells, Sigma), ARPE19 (human retinal pigment epithelial cell, ATCC), KEL-FIB (keloid fibroblast, ATCC) cells were suspended in a culture medium comprising 10% FBS and aliquoted in a 96 well plate, and then cultured under the condition of 5% CO2, 37° C. for 24 hours. The synthetic example compound was pretreated from 30 minutes to 1 hour, and then a ROS stimulus was treated to each well comprising cells and a drug. After additional culturing for 48 hours, the level of ROS production was confirmed by using L-012 or DCF-DA.

[4] = system: αSMA; test: Expression of αSMA induced by TGF-β1 in NHLF cells (immunocytochemistry); assay type: cell-based, human; conditions: compound 5 μM, TGF-β1 10 ng/ml, FIG. 3a/3b
From the text: (§6) In order to confirm whether the synthetic example compound of the present invention affects differentiation of fibroblasts into myofibroblasts, the inhibitory effect of the synthetic example compound for increasing expression of αSMA (a biomarker for confirming differentiation into myofibroblasts) induced by TGF-β1 for HL-60 cells (Korean Cell Line Bank), HFF-1 (human foreskin fibroblast, ATCC), NHLF (normal human lung fibroblast, Lonza), LX-2 (human hepatic stellate cells, Sigma), ARPE19 (human retinal pigment epithelial cell, ATCC), KEL-FIB (Keloid fibroblast, ATCC) cells was to be observed.
(§7) Each cell was suspended in a DMEM medium comprising 10% FBS and aliquoted on a 4-well chamber slide (Nunc) at a concentration of 1×10^4 cells/well, and the synthetic example compound and TGF-β1(TGF 131, TGF-β are all same meanings) were treated to prepare cells to be used for confirmation of αSMA expression. […] After performing fixation with 4% paraformaldehyde for 10 minutes and permeabilization using 0.1% Triton x-100 for the cells, the process of treating a primary antibody (anti-αSMA Ab, 1:200, at 4° C. for 16 hours) and a secondary antibody (Alexa-594 conjugated Ab, 1:800, at a room temperature for 1 hour) against αSMA was progressed sequentially, and then the level of expression of αSMA was observed by using a fluorescence microscope.

[5] = system: αSMA; test: Expression of αSMA induced by TGF-β1 in KEL-FIB cells (immunocytochemistry); assay type: cell-based; conditions: compound 5 μM, TGF-β1 10 ng/ml, FIG. 3a/3b
From the text: as §6, §7

[6] = system: CTGF gene; test: CTGF gene expression induced by TGF-β1 in KEL-FIB keloid fibroblasts (qRT-PCR); assay type: cell-based; conditions: KEL-FIB cells; 5 μM or 10 μM compound; 2 ng/ml TGF-β1; 24 or 48 hours
Description: as §2, §3

[7] = system: N27 cells; test: ROS production induced by MPP+ in N27 dopaminergic nerve cells (DCF-DA); assay type: cell-based, rat; conditions: compound 1 μM, 24 hours, FIG. 4
From the text: The high ROS level in nerve cells induces oxidized lipids, and this is known as an important element for nerve cell death. In order to confirm the effect of the synthetic example compound on ROS production from dopaminergic nerve cells, ROS production was induced by stimulation of MPP+(1-methyl-4-phenylptridinium) for N27 (rat dopaminergic neural cell, Sigma) cells, and the inhibitory effect of ROS production of the synthetic example compound was observed under this condition.
N27 cells were cultured in a RPMI medium comprising 10% FBS, […], and the cultured cells were aliquoted in a 6 well plate at a concentration of 5×10^3˜6×10^3 cells/well. The ROS production stimuli, MPP+ (1-methyl-4-phenylptridinium) and Synthetic example compound 3 (1 μM) were treated into the cells. In 24 hours after treating the synthetic example compound, by measuring fluorescence of each well using DCF-DA, the ROS production level was confirmed.

[8] = system: αSMA; test: Expression of αSMA induced by TGF-β1 in ARPE19 cells (immunocytochemistry); assay type: cell-based, human; conditions: compound 5 μM, TGF-β1 10 ng/ml, FIG. 3a/3b
From the text: as §6
as §7, with “microscope. […]” for “microscope.”

[9] = system: IL-1β; test: Expression of IL-1β induced by LPS in LX-2 cells (RT-PCR); assay type: cell-based, human; conditions: 30 min pretreatment, LPS 6 hours, FIG. 5
Description: as §1

[10] = system: NHLF cells; test: ROS production in NHLF cells (L-012 or DCF-DA); assay type: cell-based, human; conditions: FIG. 1
From the text: as §4, §5

[11] = system: αSMA; test: Expression of αSMA induced by TGF-β1 in LX-2 cells (immunocytochemistry); assay type: cell-based, human; conditions: compound 5 μM, TGF-β1 10 ng/ml, FIG. 3a/3b
From the text: as §6, §7

[12] = system: αSMA; test: Expression of αSMA induced by TGF-β1 in HFF-1 cells (immunocytochemistry); assay type: cell-based, human; conditions: compound 5 μM, TGF-β1 10 ng/ml, FIG. 3a/3b
From the text: as §6, §7

[13] = system: bleomycin-induced pulmonary fibrosis mouse model; test: Bleomycin-induced pulmonary fibrosis mouse model; assay type: in vivo; conditions: BLM+NIN; 100 mg/kg orally once a day for 28 days; BLM group 5.4±0.5, negative control 0.4±0.55
Description: As a bleomycin-induced pulmonary fibrosis mouse model, 5-week-old, C57BL/6J male mice weighing 20 g before and after were used. The experiment was progressed by dividing the experimental animals into a control group in which distilled water was orally administered (Control), a group in which pulmonary fibrosis was caused by bleomycin (BLM), an experimental group in which bleomycin was administered and in 3 weeks, as a positive control group, nintedanib of 100 mg/kg was orally administered daily (BLM+NIN), and an experimental group in which bleomycin was administered and in 3 weeks, the synthetic example compound of the present invention of 3 mg/kg was orally administered daily (BLM+Synthetic example) as 7 mice per group.
The nintedanib and synthetic example compound was orally administered once a day for 28 days. […]
Comprehensively, based on the above histological and immunological results, by quantifying with improved Ashcroft scores (modified Ashcroft scale) widely used in the pulmonary fibrosis tissue analysis field, the severity of pulmonary fibrosis of each of the synthetic example compound administration groups (BLM+Synthetic example) compared to the negative control group (control), experimental group (BLM), positive control group was evaluated. […] For the experimental result, the mean and standard deviation were calculated using SPSS ver. […]

[14] = system: STAM mice; test: Non-alcoholic steatohepatitis and liver fibrosis STAM mouse model; assay type: in vivo; conditions: STAM+TEL, 10 mg/kg orally once a day for 28 days
From the text: In order to confirm the therapeutic effect for non-alcoholic steatohepatitis and liver fibrosis of the synthetic example compound of the present invention, non-alcoholic steatohepatitis and liver fibrosis-induced STAM mice (6-week-old, female, SMC laborlabories Inc, Japan) were used. All the mice were maintained under a standard condition. The experiment was progressed by dividing the experimental animals into a normal control group in which distilled water was orally administered (negative control), STAM group in which non-alcoholic steatohepatitis and fibrosis were induced (vehicle control), an experimental group in which telmisartane of 10 mg/kg was orally administered daily as a STAM positive control group (STAM+TEL), and an experimental group in which the synthetic example compound of 3 or 10 mg/kg was orally administered daily (STAM+Synthetic example) as 7 mice per group. The telmisartane and synthetic example compound were orally administered once a day for 28 days.
After completing the test, the animals were anesthetized and liver tissue was extracted for each individual, and blood was taken for examination. The weight of the liver tissue was measured and it was photographed. The tissue was fixed in 10% buffered neutral formalin solution. […]

Oc1c2c(nn1-c1ccccn1)CN(Cc1ccccc1)CC2 [Synthetic example 3, 6-benzyl-2-(pyridin-2-yl)-4,5,6,7-tetrahydro-2H-pyrazolo[3,4-c]pyridin-3-ol]
inhibition of IL-1β induced by LPS [1]: effectively inhibited in a concentration-dependent manner | inhibition of expression of the collagen type I gene [2]: 75% | inhibition of ROS production induced by PMA [3]: inhibited ROS production | inhibition of increase of expression of αSMA induced by TGF-β1 [4]: significantly inhibited | inhibition of increase of expression of αSMA induced by TGF-β1 [5]: significantly inhibited | inhibition of expression of the CTGF gene [6]: 76% | inhibition of ROS production induced by MPP+ [7]: inhibiting production of ROS | inhibition of increase of expression of αSMA induced by TGF-β1 [8]: significantly inhibited | inhibition of IL-1β induced by LPS [9]: effectively inhibited in a concentration-dependent manner | inhibition of ROS production induced by PMA [10]: inhibited ROS production | inhibition of increase of expression of αSMA induced by TGF-β1 [11]: significantly inhibited | inhibition of increase of expression of αSMA induced by TGF-β1 [12]: significantly inhibited

Oc1c2c(nn1-c1ccccn1)CCN(Cc1ccccc1)C2 [Synthetic example 34, 5-benzyl-2-(pyridin-2-yl)-4,5,6,7-tetrahydro-2H-pyrazolo[4,3-c]pyridin-3-ol]
inhibition of ROS production induced by PMA [3]: inhibited ROS production | inhibition of ROS production induced by PMA [10]: inhibited ROS production

COC(=O)c1ccc2c(c1)NC(=O)/C2=C(\Nc1ccc(N(C)C(=O)CN2CCN(C)CC2)cc1)c1ccccc1 [nintedanib]
improved Ashcroft score (modified Ashcroft scale) [13]: 5.0±0

CCCc1nc2c(C)cc(-c3nc4ccccc4n3C)cc2n1Cc1ccc(-c2ccccc2C(=O)O)cc1 [telmisartane]
liver fibrosis area (Sirius red staining) ([14]; STAM+vehicle 0.93±0.36, normal control 0.29±0.06): 0.44±0.15 | improved NAS score ([14]; STAM+vehicle 4.8±0.7, normal control 0.0±0.0): 2.8±0.7
